Each compound was assayed against T1, recombinant human GST-SYK (Homo sapiens, UniProt P43405) (assay: Homogeneous Time-Resolved Fluorescence (HTRF) assay for the recombinant human Syk enzyme). Conditions: HTRF assay, recombinant human GST-SYK; IC50 given as class symbols; read-out: rhSYK Activity.
T1 construct: purchased Carna Biosciences 08-176
Format: biochemical
Summary of the method: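 GST-hSYK ([…]) was preincubated with inhibitor (0.1% DMSO final) for 10 minutes at room temperature in 15 mM Tris-HCl pH 7.5, 0.01% tween 20, 2 mM DTT. Biotinylated peptide (250 nM), 5 mM magnesium and 25 μM ATP started a 45-minute room-temperature reaction, read by time-resolved fluorescence.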

| IC50 [nM] | SMILES |
| --- | --- |
| < 100 | Cc1cc(Nc2nccc(C(F)(F)F)n2)cc(-c2ccnc(NC[C@@H](C)O)c2)c1 [Example 15.52, (2R)-1-{[4-(3-methyl-5-{[4-(trifluoromethyl)pyrimidin-2-yl]amino}phenyl)pyridin-2-yl]amino}propan-2-ol] |
| < 100 | Cc1cc(Nc2nccc(C(F)(F)F)n2)cc(-c2ccnc(N3CC(O)C3)c2)c1 [Example 15.53, 1-[4-(3-methyl-5-{[4-(trifluoromethyl)pyrimidin-2-yl]amino}phenyl)pyridin-2-yl] azetidin-3-ol] |
| < 100 | CC(=O)NCCNc1cc(-c2cc(C)cc(Nc3nccc(C(F)(F)F)n3)c2)ccn1 [Example 15.54, N-(2-{[4-(3-methyl-5-{[4-(trifluoromethyl)pyrimidin-2-yl]amino}phenyl)pyridin-2-yl]amino}ethyl)acetamide] |
| < 100 | Cc1cc(Nc2nccc(C(F)(F)F)n2)cc(-c2ccnc(N3CCCC3C(N)=O)c2)c1 (stereo not shown) [Example 15.55, 1-[4-(3-methyl-5-{[4-(trifluoromethyl)pyrimidin-2-yl]amino}phenyl)pyridin-2-yl] prolinamide] |
| < 100 | Cc1cc(Nc2nccc(C(F)(F)F)n2)cc(-c2ccnc(NC3(CO)CC3)c2)c1 [Example 15.56, (1-{[4-(3-methyl-5-{[4-(trifluoromethyl)pyrimidin-2-yl]amino}phenyl)pyridin-2-yl]amino}cyclopropyl)methanol] |
| 100 to 1000 | Cc1cc(Nc2nccc(C(F)(F)F)n2)cc(-c2ccnc(N(C)CCC3OCCO3)c2)c1 [Example 15.57, N-[3-(2-{[2-(1,3-dioxolan-2-yl)ethyl](methyl)amino}pyridin-4-yl)-5-methylphenyl]-4-(trifluoromethyl)pyrimidin-2-amine] |
| 100 to 1000 | CNC(=O)C1CCN(c2cc(-c3cc(C)cc(Nc4nccc(C(F)(F)F)n4)c3)ccn2)CC1 [Example 15.58, N-methyl-1-[4-(3-methyl-5-{[4-(trifluoromethyl)pyrimidin-2-yl]amino}phenyl)pyridin-2-yl]piperidine-4-carboxamide] |
| < 100 | Cc1cc(Nc2nccc(C(F)(F)F)n2)cc(-c2ccnc(NCCC(N)=O)c2)c1 [Example 15.59, N~3~-[4-(3-methyl-5-{[4-(trifluoromethyl)pyrimidin-2-yl]amino}phenyl)pyridin-2-yl]-beta-alaninamide] |
| 100 to 1000 | Cc1cc(Nc2nccc(C(F)(F)F)n2)cc(-c2ccnc(NCC(C)(C)O)c2)c1 [Example 15.60, 2-methyl-1-{[4-(3-methyl-5-{[4-(trifluoromethyl)pyrimidin-2-yl]amino}phenyl)pyridin-2-yl]amino}propan-2-ol] |
| 100 to 1000 | Cc1cc(Nc2nccc(C(F)(F)F)n2)cc(-c2ccnc(N3CCN(C)CC3)c2)c1 [Example 15.61, N-{3-methyl-5-[2-(4-methylpiperazin-1-yl)pyridin-4-yl]phenyl}-4-(trifluoromethyl)pyrimidin-2-amine] |
| 100 to 1000 | Cc1cc(Nc2nccc(C(F)(F)F)n2)cc(-c2ccnc(NC3COC3)c2)c1 [Example 15.62, N-{3-methyl-5-[2-(oxetan-3-ylamino)pyridin-4-yl]phenyl}-4-(trifluoromethyl)pyrimidin-2-amine] |
| 100 to 1000 | Cc1cc(Nc2nccc(C(F)(F)F)n2)cc(-c2ccnc(N3CCN(S(C)(=O)=O)CC3)c2)c1 [Example 15.63, N-(3-methyl-5-{2-[4-(methylsulfonyl)piperazin-1-yl]pyridin-4-yl}phenyl)-4-(trifluoromethyl)pyrimidin-2-amine] |
| 100 to 1000 | CCN1CCN(c2cc(-c3cc(C)cc(Nc4nccc(C(F)(F)F)n4)c3)ccn2)CC1 [Example 15.64, N-{3-[2-(4-ethylpiperazin-1-yl)pyridin-4-yl]-5-methylphenyl}-4-(trifluoromethyl)pyrimidin-2-amine] |
| 100 to 1000 | CC(=O)NCCN(C)c1cc(-c2cc(C)cc(Nc3nccc(C(F)(F)F)n3)c2)ccn1 [Example 15.65, N-(2-{methyl[4-(3-methyl-5-{[4-(trifluoromethyl)pyrimidin-2-yl]amino}phenyl)pyridin-2-yl]amino}ethyl)acetamide] |
| < 100 | Cc1cc(Nc2nccc(C(F)(F)F)n2)cc(-c2ccnc(N[C@@H]3CCC(=O)NC3)c2)c1 [Example 15.66, (5R)-5-{[4-(3-methyl-5-{[4-(trifluoromethyl)pyrimidin-2-yl]amino}phenyl)pyridin-2-yl]amino}piperidin-2-one] |
| < 100 | Cc1cc(Nc2nccc(C(F)(F)F)n2)cc(-c2ccnc(N[C@H]3CCC(=O)NC3)c2)c1 [Example 15.67, (5S)-5-{[4-(3-methyl-5-{[4-(trifluoromethyl)pyrimidin-2-yl]amino}phenyl)pyridin-2-yl]amino}piperidin-2-one] |
| 100 to 1000 | Cc1cc(Nc2nccc(C(F)(F)F)n2)cc(-c2ccnc(N3CCCC(F)(F)C3)c2)c1 [Example 15.68, N-{3-[2-(3,3-difluoropiperidin-1-yl)pyridin-4-yl]-5-methylphenyl}-4-(trifluoromethyl)pyrimidin-2-amine] |

| IC50 [nM] | SMILES |
| --- | --- |
| 100 to 1000 | COCC1CCCN1c1cc(-c2cc(C)cc(Nc3nccc(C(F)(F)F)n3)c2)ccn1 (stereo not shown) [Example 15.69, N-(3-{2-[2-(methoxymethyl)pyrrolidin-1-yl]pyridin-4-yl}-5-methylphenyl)-4-(trifluoromethyl)pyrimidin-2-amine] |
| 100 to 1000 | Cc1cc(Nc2nccc(C(F)(F)F)n2)cc(-c2ccnc(N3CCC(F)(F)CC3)c2)c1 [Example 15.70, N-{3-[2-(4,4-difluoropiperidin-1-yl)pyridin-4-yl]-5-methylphenyl}-4-(trifluoromethyl)pyrimidin-2-amine] |
| < 100 | Cc1cc(Nc2nccc(C(F)(F)F)n2)cc(-c2ccnc(N3CC(C)NC(C)C3)c2)c1 (stereo not shown) [Example 15.71, N-{3-[2-(3,5-dimethylpiperazin-1-yl)pyridin-4-yl]-5-methylphenyl}-4-(trifluoromethyl)pyrimidin-2-amine] |
| < 100 | Cc1cc(Nc2nccc(C(F)(F)F)n2)cc(-c2ccnc(NCC(C)O)c2)c1 (stereo not shown) [Example 15.72, 1-{[4-(3-methyl-5-{[4-(trifluoromethyl)pyrimidin-2-yl]amino}phenyl)pyridin-2-yl]amino}propan-2-ol] |
| < 100 | Cc1cc(Nc2nccc(C(F)(F)F)n2)cc(-c2ccnc(N3CCC[C@H]3C(N)=O)c2)c1 [Example 15.73, 1-[4-(3-methyl-5-{[4-(trifluoromethyl)pyrimidin-2-yl]amino}phenyl)pyridin-2-yl]-L-prolinamide] |
| < 100 | Cc1cc(Nc2nccc(C(F)(F)F)n2)cc(-c2ccnc(NC3CNC(=O)C3)c2)c1 (stereo not shown) [Example 15.74, 4-{[4-(3-methyl-5-{[4-(trifluoromethyl)pyrimidin-2-yl]amino}phenyl)pyridin-2-yl]amino}pyrrolidin-2-one] |
| 100 to 1000 | CC(=O)N1CCCN(c2cc(-c3cc(C)cc(Nc4nccc(C(F)(F)F)n4)c3)ccn2)CC1 [Example 15.75, N-{3-[2-(4-acetyl-1,4-diazepan-1-yl)pyridin-4-yl]-5-methylphenyl}-4-(trifluoromethyl)pyrimidin-2-amine] |
| < 100 | CCCN1CCCN(c2cc(-c3cc(C)cc(Nc4nccc(C(F)(F)F)n4)c3)ccn2)CC1 [Example 15.76, N-{3-methyl-5-[2-(4-propyl-1,4-diazepan-1-yl)pyridin-4-yl]phenyl}-4-(trifluoromethyl)pyrimidin-2-amine] |
| 100 to 1000 | COCC1CCN(c2cc(-c3cc(C)cc(Nc4nccc(C(F)(F)F)n4)c3)ccn2)C1 (stereo not shown) [Example 15.77, N-(3-{2-[3-(methoxymethyl)pyrrolidin-1-yl]pyridin-4-yl}-5-methylphenyl)-4-(trifluoromethyl)pyrimidin-2-amine] |
| 100 to 1000 | CNC(=O)CCNc1cc(-c2cc(C)cc(Nc3nccc(C(F)(F)F)n3)c2)ccn1 [Example 15.78, N-methyl-N~3~-[4-(3-methyl-5-{[4-(trifluoromethyl)pyrimidin-2-yl]amino}phenyl)pyridin-2-yl]-beta-alaninamide] |
| 1000 to 10000 | CCCOC1CCCN(c2cc(-c3cc(C)cc(Nc4nccc(C(F)(F)F)n4)c3)ccn2)C1 (stereo not shown) [Example 15.79, N-{3-methyl-5-[2-(3-propoxypiperidin-1-yl)pyridin-4-yl]phenyl}-4-(trifluoromethyl)pyrimidin-2-amine] |
| 100 to 1000 | CC(=O)NCCCNc1cc(-c2cc(C)cc(Nc3nccc(C(F)(F)F)n3)c2)ccn1 [Example 15.80, N-(3-{[4-(3-methyl-5-{[4-(trifluoromethyl)pyrimidin-2-yl]amino}phenyl)pyridin-2-yl]amino}propyl)acetamide] |
| 100 to 1000 | Cc1cc(Nc2nccc(C(F)(F)F)n2)cc(-c2ccnc(NCC(=O)N(C)C)c2)c1 [Example 15.82, N,N-dimethyl-N~2~-[4-(3-methyl-5-{[4-(trifluoromethyl)pyrimidin-2-yl]amino}phenyl)pyridin-2-yl]glycinamide] |
| < 100 | Cc1cc(Nc2nccc(C(F)(F)F)n2)cc(-c2ccnc(NCC3CCC(=O)N3)c2)c1 (stereo not shown) [Example 15.83, 5-({[4-(3-methyl-5-{[4-(trifluoromethyl)pyrimidin-2-yl]amino}phenyl)pyridin-2-yl]amino}methyl)pyrrolidin-2-one] |
| 1000 to 10000 | Cc1cc(Nc2nccc(C(F)(F)F)n2)cc(-c2ccnc(N3CC4CNC(CO)C4C3)c2)c1 (stereo not shown) [Example 15.84, {5-[4-(3-methyl-5-{[4-(trifluoromethyl)pyrimidin-2-yl]amino}phenyl)pyridin-2-yl]octahydropyrrolo[3,4-c]pyrrol-1-yl}methanol] |
| < 100 | Cc1cc(Nc2nccc(C(F)(F)F)n2)cc(-c2ccnc(N3CC(C)NC(C)C3)c2)c1 (stereo not shown) [Example 15.85, N-{3-[2-(3,5-dimethylpiperazin-1-yl)pyridin-4-yl]-5-methylphenyl}-4-(trifluoromethyl)pyrimidin-2-amine] |
| < 100 | Cc1cc(Nc2nccc(C(F)(F)F)n2)cc(-c2ccnc(N3CCC(C(=O)O)CC3)c2)c1 [Example 15.87, 1-[4-(3-methyl-5-{[4-(trifluoromethyl)pyrimidin-2-yl]amino}phenyl)pyridin-2-yl]piperidine-4-carboxylic acid] |

From US9376418B2, “Substituted pyridine spleen tyrosine kinase (SYK) inhibitors” (Merck Sharp & Dohme Corp., priority 2012, dated 2016)
